In patent US5045566A, “Novel imidate insecticides” (ICI Americas Inc., priority 1989, dated 1991):

Assays:
Assay type in all cases: in vivo
[1] = system: Tobacco Budworm [Heliothis virescens (Fabricius)] larvae; experiment: Tobacco budworm larvae, contact (TBW-C), 5 days; settings: percent in solution, second-instar larvae
Procedure: The compounds in Tables 1 and 2 above were tested for insecticidal activity using the following testing procedures. LC50 values, based on the results of these tests and calculated according to dosage-mortality curves, are expressed in Table 3.
Tobacco Budworm [Heliothis virescens (Fabricius)]:
(a) Contact: Test compounds were diluted in a 50-50 acetone-water solution. Cotton (Gossypium sp.) cotyledons were immersed in the test solutions for 2-3 seconds and placed on a wire screen to dry. The dried leaves were placed in petri dishes containing a moistened piece of filter paper and infested with 5 second-instar tobacco budworm larvae. The dishes were placed in a high humidity chamber for 5 days, and percent mortality of the larvae recorded. Test concentrations ranged from 0.1% downward. The LC-50 values are expressed below in Table 3 under the heading "TBW-C" in terms of percent of the test compound in the solution.

[2] = system: Cabbage Looper [Trichoplusia ni (Hubner)]; experiment: Cabbage looper leaf dip (CL), 3-5 days; settings: percent in solution, second-instar larvae
How it was run: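 Squash cotyledons dipped 2-3 s in compound in 50-50 acetone-water, dried, then infested with 5 second-instar larvae and held at high humidity. Mortality scored after 3-5 days at concentrations from 0.1% downward. LC50 from dosage-mortality curves, expressed as percent compound in solution.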

[3] = system: Tobacco Budworm [Heliothis virescens (Fabricius)] eggs; experiment: Tobacco budworm eggs (TBW-E); settings: percent in solution; 2-day old eggs
How it was run: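 Paper-towel patches of 2-day-old eggs dipped in acetone solutions of compound (0.1% downward), held on larval rearing medium at 78° F. Mortality scored once all control eggs had hatched and larvae were feeding; LC50 from dosage-mortality curves, expressed as percent compound in solution.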

[4] = system: Housefly [Musca domestica]; experiment: Housefly contact mortality in dishes (HF), 48 hours; settings: μg of test compound per 25 female flies
How it was run: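 Acetone solutions (with 0.01% peanut oil) dried onto dish bottoms, then 25 female flies, 1-2 days old, caged over the residue with sugar water. Mortality scored at 48 hours; LC50 from dosage-mortality curves, in μg per 25 female flies, top level 100 μg.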

[5] = system: Maize weevil [Sitophilus zeamais (Motschulsky)]; experiment: Maize weevil on dipped corn seeds (MW), 48 hours; settings: percent in solution, adult weevils
How it was run: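 LC50, given as percent of compound in dipping solution, comes from dosage-mortality curves over concentrations descending from 0.01%. Four corn seeds soaked 2-3 s in 50:50 acetone:water solution were dried and held with 10 adult weevils, about 25° C, mortality read after 48 h.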

[6] = system: Black Bean Aphid [Aphis fabae (Scop.)]; experiment: Black bean aphid spray test on nasturtium (BBA), 48 hours; settings: percent of test compound in sprayed solution
How it was run: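 LC50, given as percent test compound in the sprayed liquid, was calculated from dosage-mortality curves using concentrations from 0.05% downward. Sprays in 50:50 acetone-water went to runoff on ~5 cm nasturtiums carrying 25-50 aphids of mixed ages, one day after infestation. Deaths were counted 48 h later under greenhouse conditions.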

[7] = system: Aster Leafhopper [Macrosteles fascifrens (Stal)]; experiment: Aster leafhopper on dipped oat seedlings (LH), 48 hours; settings: percent in solution, adults/nymphs
How it was run: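 Three ~10 cm oat seedlings per cup were dipped 2-3 seconds in 50-50 acetone-water compound solutions, dried, and caged with ten adult/nymph leafhoppers. Mortality was counted after 48 hours at concentrations from 0.05% downward. LC50, as percent compound in solution, came from dosage-mortality curves.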

| SMILES | LC50 TBW C (contact) [1] [%] | LC50 CL [2] [%] | LC50 TBW E (eggs) [3] [%] | LC50 HF [4] [µg] | LC50 MW [5] [%] | LC50 BBA [6] [%] | LC50 LH [7] [%] |
| --- | --- | --- | --- | --- | --- | --- | --- |
| CC(C)(C)C(=Nc1ccc(F)c(Cl)c1)OCc1cccc(Oc2ccc(F)cc2)c1 [Compound 204] | 0.004 | 0.0023 | > 0.1 | > 100 | > 0.01 | – | – |
| Cc1cc(Cl)ccc1N=C(OCc1cccc(Oc2ccccc2)c1)C(C)C [Compound 96] | 0.0025 | 0.003 | 0.025 | 35 | – | 0.002 | – |
| Cc1c(F)cccc1N=C(OCc1cccc(Oc2ccccc2)c1)C(C)C [Compound 73] | 0.005 | 0.004 | 0.025 | 25 | – | 0.003 | – |
| ClC(Cl)C(=Nc1ccccc1)OCc1cccc(Oc2ccccc2)c1 [Compound 41] | 0.0035 | 0.015 | 0.04 | 4.5 | – | 0.001 | – |
| COc1ccc(N=C(OCc2cccc(Oc3ccccc3)c2)C(C)C)c(OC)c1 [Compound 146] | 0.025 | 0.017 | > 0.1 | 40 | – | 0.05 | – |
| CC(=O)c1ccc(N=C(OCc2cccc(Oc3ccccc3)c2)C(C)C)cc1 [Compound 147] | 0.0075 | 0.01 | > 0.1 | 10 | – | 0.03 | – |
| CC(C)C(=Nc1cc(F)cc(F)c1)OCc1cccc(Oc2ccc(F)cc2)c1 [Compound 199] | 0.003 | 0.0006 | > 0.1 | 8 | > 0.01 | – | – |
| CC(C)(C)c1ccc(N=C(OCc2cccc(Oc3ccccc3)c2)C(Cl)Cl)cc1 [Compound 140] | > 0.1 | < 0.1 | > 0.1 | > 100 | – | 0.05 | – |
| Cc1ccc(F)cc1N=C(OCc1cccc(Oc2ccccc2)c1)C(C)C [Compound 74] | 0.0025 | 0.005 | 0.025 | 25 | – | 0.001 | – |
| Fc1ccc(N=C(OCc2cccc(Oc3ccccc3)c2)C(Cl)Cl)cc1 [Compound 44] | < 0.1 | – | 0.06 | 3 | – | 0.0006 | – |
| CC(C)C(=Nc1ccc2c(c1)OCO2)OCc1cccc(Oc2ccc(C(C)(C)C)cc2)c1 [Compound 367] | – | < 0.1 | > 0.1 | > 100 | > 0.01 | > 0.05 | > 0.05 |
| C#CCc1c(F)c(F)c(COC(=Nc2cccc(C(F)(F)F)c2)C(C)C)c(F)c1F [Compound 546] | – | 0.0001 | > 0.1 | < 100 | 0.0032 | 0.001 | < 0.05 |
| Cc1ccc(N=C(OCc2ccc(F)c(Oc3ccccc3)c2)C(C)C)cc1F [Compound 354] | – | > 0.1 | 0.018 | < 100 | 0.0068 | 0.001 | < 0.05 |
| COc1ccc(N=C(OCc2cccc(Oc3ccccc3)c2)C(C)C)cc1Cl [Compound 95] | 0.004 | 0.0025 | 0.025 | 10 | – | 0.001 | – |
| CC(C)C(=Nc1cccc(C(F)(F)F)c1)OCc1ccc(F)c(Oc2ccc(Cl)cc2)c1 [Compound 266] | 0.0007 | 0.00016 | 0.06 | 10 | – | > 0.05 | – |
| CC(C)C(=Nc1ccc(F)c(Cl)c1)OCc1cccc(Nc2ccc(F)cc2)c1 [Compound 512] | – | 0.003 | > 0.1 | 35 | > 0.01 | > 0.05 | > 0.05 |
| CC(C)C(=Nc1ccc(F)c(Cl)c1)OCc1cccc(OCc2ccc(F)cc2)c1 [Compound 490] | – | 0.0045 | > 0.1 | > 100 | > 0.01 | > 0.05 | > 0.05 |
| CC(C)C(=Nc1ccc(F)c(Cl)c1)OCc1ccc(OCc2ccccc2)cc1 [Compound 475] | – | 0.008 | > 0.1 | > 100 | > 0.01 | > 0.05 | > 0.05 |
| CC(C)C(=Nc1ccc(C(F)(F)F)cc1)OCc1cccc(Cc2ccccc2)c1 [Compound 543] | – | 0.0008 | > 0.1 | < 100 | > 0.01 | 0.003 | < 0.05 |
| CSc1ccc(N=C(OCc2ccc(F)c(Oc3ccccc3)c2)C(C)C)cc1 [Compound 353] | – | > 0.1 | > 0.1 | < 100 | > 0.01 | 0.001 | > 0.05 |
| CC(C)C(=Nc1ccccc1Br)OCc1cccc(Oc2ccccc2)c1 [Compound 132] | – | 0.025 | > 0.1 | 65 | > 0.01 | 0.0025 | > 0.05 |
| CC(C)C(=Nc1ccc(F)c(Cl)c1)OCc1cc(Oc2ccc(Cl)cc2)ccn1 [Compound 516] | – | 0.008 | > 0.1 | > 100 | > 0.01 | > 0.05 | > 0.05 |
| CC(C)C(=Nc1ccc(Br)cc1F)OCc1cccc(Oc2ccc(F)cc2)c1 [Compound 351] | – | 0.0007 | > 0.1 | 26 | > 0.01 | 0.001 | > 0.05 |
| CC(C)C(=Nc1ccc([N+](=O)[O-])cc1)OCc1coc(Cc2ccccc2)c1 [Compound 539] | – | > 0.1 | > 0.1 | 22 | > 0.01 | > 0.05 | > 0.05 |
| Cc1c(COC(=Nc2ccc(C(C)(C)C)cc2)C(C)C)cccc1-c1ccccc1 [Compound 536] | – | < 0.1 | > 0.1 | > 100 | > 0.01 | < 0.05 | > 0.05 |
| CC(C)(C)C(=Nc1ccc(F)c(F)c1)OCc1coc(Cc2ccccc2)c1 [Compound 525] | – | < 0.1 | > 0.1 | > 100 | > 0.01 | > 0.05 | > 0.05 |
| CC(C)C(=Nc1ccc(F)c(Cl)c1)OCc1cccc(Cc2ccccc2)c1 [Compound 537] | – | > 0.1 | > 0.1 | 20 | > 0.01 | > 0.05 | > 0.05 |
